Experimental data reported in patent publication US20070148643A1, “Treatment of Huntington's Disease with EPA” (priority 2002, published 2007).

Assays:
[1] = test system: patients with genetically-confirmed HD; experiment: one year randomised placebo-controlled trial of ethyl-EPA in HD, total motor score (TMS) subscale of the UHDRS; format: in vivo, human
Procedure: 135 patients with genetically-confirmed HD were entered into a one year trial. They were randomised to receive either 2 g/day of ethyl-EPA or an identical-appearing placebo. They were evaluated at baseline, six months and 12 months on the total motor score (TMS) subscale of the Unified Huntington's Disease Rating Scale (UHDRS). The UHDRS is the standard rating scale which is used to monitor the development of HD. The TMS is the component of the UHDRS which changes most reliably, rapidly and consistently and is therefore appropriate for monitoring the outcome of clinical trials. At the end of one year, change in TMS was compared in the placebo group and the ethyl-EPA group. […] However, when patients were stratified on the basis of their CAG repeat numbers, a dramatic benefit of ethyl-EPA was uncovered. […] Placebo patients with CAG repeat numbers 45 and below deteriorated by an average of 5.3%. In contrast, the same group of patients on ethyl-EPA improved over the year by 19.3%. This difference was highly statistically significant on either analysis of covariance or on chi square testing. […] Previously the best that had been hoped for in neurodegenerative diseases like HD was a slowing of deterioration rather than any actual improvement. […] Putting it another way, the treated patients had gained at least four and a half years of useful life.

[2] = test system: severely disabled patients in the final stages of Huntington's disease; conditions: 2 g/day, 6 months, cited from earlier work

SMILES: CC/C=C\C/C=C\C/C=C\C/C=C\C/C=C\CCCC(=O)OCC [ethyl-EPA, ethyl ester of eicosapentaenoate]
- proportion of patients improving on TMS ([1]; 2 g/day, CAG repeats 45 and below): great majority of patients on ethyl-EPA actually improved
- improvement in TMS over the year, patients with CAG repeat numbers 45 and below ([1]; 2 g/day, CAG repeats 45 and below, placebo deteriorated by 5.3%): 19.3%
- benefit versus placebo, patients with CAG repeat numbers of 45 or below ([1]; 2 g/day, CAG repeats 45 or below (below 45)): large benefit
- change in TMS versus placebo, patients with CAG repeat number of 46 or more ([1]; 2 g/day, CAG repeats 46 or more): did not show any difference at all between placebo and ethyl-EPA
- change in TMS versus placebo, all patients ([1]; 2 g/day, all patients (not stratified)): better outcome on ethyl-EPA than on placebo but this was not statistically significant
- improvement relative to the change in patients on placebo over one year ([1]; CAG repeats 45 and below): more than three and a half times more
- separation of EPA and placebo patients in years of disease progression after one year ([1]; CAG repeats 45 and below): more than four and a half years
- clinical course (abnormal movements, emotional lability and irritability, memory and cognitive function) ([2]; three patients on ethyl-EPA, four on placebo): all three patients who improved were found to be taking ethyl-EPA
- lateral ventricle size by MRI ([2]; two patients on ethyl-EPA, beginning versus end of study): reduction in lateral ventricle size
